Test system: LG0567-F671-PDC KRAS tumor spheroid viability
Experiment: Anticancer human tumor LG0567-F671-PDC patient-derived lung adenocarcinoma cell line growth inhibition [KRAS2]
Conditions: spheroids with HUVEC and MSC; for viability, T/C: stronger effect = lower value
Procedure, shortened: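 KRAS-mutant tumor cells were grown as spheroids with HUVEC endothelial cells and human MSCs as stroma. Targeted agents were tested alone and with KRAS pathway inhibitors. Doses started at or near clinical Cmax, or 10 microM, descending half-log.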

[1] = curve of first compound, second compound 0.1 µM
[2] = curve of first compound, second compound 0.316 µM
[3] = curve of first compound, second compound 1 µM
[4] = curve of first compound, second compound 3.16 µM
[5] = curve of first compound, second compound 10 µM
[6] = second compound 0.1 µM, first compound 0.000316 µM
[7] = second compound 0.1 µM, first compound 0.001 µM
[8] = second compound 0.1 µM, first compound 0.00316 µM
[9] = second compound 0.1 µM, first compound 0.01 µM
[10] = second compound 0.1 µM, first compound 0.0316 µM
[11] = second compound 0.316 µM, first compound 0.000316 µM
[12] = second compound 0.316 µM, first compound 0.001 µM
[13] = second compound 0.316 µM, first compound 0.00316 µM
[14] = second compound 0.316 µM, first compound 0.01 µM
[15] = second compound 0.316 µM, first compound 0.0316 µM
[16] = second compound 1 µM, first compound 0.000316 µM
[17] = second compound 1 µM, first compound 0.001 µM
[18] = second compound 1 µM, first compound 0.00316 µM
[19] = second compound 1 µM, first compound 0.01 µM
[20] = second compound 1 µM, first compound 0.0316 µM
[21] = second compound 3.16 µM, first compound 0.000316 µM
[22] = second compound 3.16 µM, first compound 0.001 µM
[23] = second compound 3.16 µM, first compound 0.00316 µM
[24] = second compound 3.16 µM, first compound 0.01 µM
[25] = second compound 3.16 µM, first compound 0.0316 µM
[26] = second compound 10 µM, first compound 0.000316 µM
[27] = second compound 10 µM, first compound 0.001 µM
[28] = second compound 10 µM, first compound 0.00316 µM
[29] = second compound 10 µM, first compound 0.01 µM
[30] = second compound 10 µM, first compound 0.0316 µM
[31] = second compound 0.1 µM, first compound 0.1 µM
[32] = second compound 0.316 µM, first compound 0.1 µM
[33] = second compound 1 µM, first compound 0.1 µM
[34] = second compound 3.16 µM, first compound 0.1 µM
[35] = second compound 10 µM, first compound 0.1 µM
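Also: drug exposure lasted seven days after spheroids formed for three days.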
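For viability, T/C in this document: 100% = DMSO vehicle control viability.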

In the case of `CC(=O)Nc1cccc(-n2c(=O)n(C3CC3)c(=O)c3c(Nc4ccc(I)cc4F)n(C)c(=O)c(C)c32)c1` + CNCc1ccccc1-c1csc(C(C)Nc2nc(C)nc3cc(OC)c(OC)cc23)c1, the IC50 [1] is reported as 2.08 nM, the IC50 [2] is reported as 0.799 nM and the IC50 [3] is reported as 0.813 nM. For the same compound, the IC50 [4] was < 0.1 nM, the IC50 [5] was < 0.1 nM and the viability, T/C (second compound 0.1 µM, first compound 0.0001 µM) was 73.6%. The viability, T/C [6] was 68.3%, the viability, T/C [7] was 49.1% and the viability, T/C [8] was 52.5%. It also gave a viability, T/C [9] of 29.4%, a viability, T/C [10] of 11.6% and a viability, T/C (second compound 0.316 µM, first compound 0.0001 µM) of 65.1%. The viability, T/C [11] was 54.7%, the viability, T/C [12] was 47.8% and the viability, T/C [13] was 33.4%. The viability, T/C [14] was 39%, the viability, T/C [15] was 8.76% and the viability, T/C (second compound 1 µM, first compound 0.0001 µM) was 61.8%. The viability, T/C [16] was 63.2%, the viability, T/C [17] was 46.9% and the viability, T/C [18] was 26.8%. It also gave a viability, T/C [19] of 17.9%, a viability, T/C [20] of 8.07% and a viability, T/C (second compound 3.16 µM, first compound 0.0001 µM) of 2.63%. It also gave a viability, T/C [21] of 1.14%, a viability, T/C [22] of 0.22% and a viability, T/C [23] of 0.57%. The viability, T/C [24] was 0.29%, the viability, T/C [25] was 0.3% and the viability, T/C (second compound 10 µM, first compound 0.0001 µM) was 1.49%. For the same compound, the viability, T/C [26] was 0.17%, the viability, T/C [27] was 0.53% and the viability, T/C [28] was 0.14%. For the same compound, the viability, T/C [29] was 0.14% and the viability, T/C [30] was 0.24%.

For `CN(C)C/C=C/C(=O)Nc1cc2c(Nc3ccc(F)c(Cl)c3)ncnc2cc1O[C@H]1CCOC1` + C=CC(=O)N1CCN(c2nc(=O)n(-c3c(C)ccnc3C(C)C)c3nc(-c4c(O)cccc4F)c(F)cc23)C(C)C1, the IC50 [1] was < 0.316 nM, the IC50 [2] was < 0.316 nM and the IC50 [3] was < 0.316 nM. The IC50 [4] was < 0.316 nM, the IC50 [5] was < 0.316 nM and the viability, T/C [6] was 32.6%. For the same compound, the viability, T/C [7] was 26.2%, the viability, T/C [8] was 23.1% and the viability, T/C [9] was 18.4%. For the same compound, the viability, T/C [10] was 15.4%, the viability, T/C [31] was 26.1% and the viability, T/C [11] was 28.6%. For the same compound, the viability, T/C [12] was 28.2%, the viability, T/C [13] was 26.1% and the viability, T/C [14] was 21.6%. The viability, T/C [15] was 24.1%, the viability, T/C [32] was 28.4% and the viability, T/C [16] was 25.1%. For the same compound, the viability, T/C [17] was 24.7%, the viability, T/C [18] was 24.5% and the viability, T/C [19] was 26.2%. It also gave a viability, T/C [20] of 27.5%, a viability, T/C [33] of 24.4% and a viability, T/C [21] of 18.6%. It also gave a viability, T/C [22] of 22.9%, a viability, T/C [23] of 26.1% and a viability, T/C [24] of 14.5%. For the same compound, the viability, T/C [25] was 21.8%, the viability, T/C [34] was 22.5% and the viability, T/C [26] was 23%. For the same compound, the viability, T/C [27] was 22.9%, the viability, T/C [28] was 15.8% and the viability, T/C [29] was 13.1%. For the same compound, the viability, T/C [30] was 18.5% and the viability, T/C [35] was 13.3%.

In the case of `COC(=O)c1ccc2c(C(=Nc3ccc(N(C)C(=O)CN4CCN(C)CC4)cc3)c3ccccc3)c(O)[nH]c2c1`, the viability, T/C (compound 0.1 µM) is reported as 91% [middle of 5 runs], the viability, T/C (compound 1 µM) is reported as 90.2% [middle of 5 runs] and the viability, T/C (compound 3.16 µM) is reported as 93% [middle of 5 runs]. For the same compound, the viability, T/C (compound 10 µM) was 94.1% [middle of 5 runs] and the IC50 (curve of compound) was > 10000 nM.

For `Cn1ncnc1[C@H]1c2n[nH]c(=O)c3cc(F)cc(c23)N[C@@H]1c1ccc(F)cc1` + CNCc1ccccc1-c1csc(C(C)Nc2nc(C)nc3cc(OC)c(OC)cc23)c1, the IC50 [1] was > 100 nM, the IC50 [2] was > 100 nM and the IC50 [3] was 13.1 nM. For the same compound, the IC50 [4] was < 0.316 nM, the IC50 [5] was < 0.316 nM and the viability, T/C [6] was 79.2%. The viability, T/C [7] was 82%, the viability, T/C [8] was 73.4% and the viability, T/C [9] was 70%. For the same compound, the viability, T/C [10] was 71.4%, the viability, T/C [31] was 74.5% and the viability, T/C [11] was 64.8%. For the same compound, the viability, T/C [12] was 64.9%, the viability, T/C [13] was 61.1% and the viability, T/C [14] was 57.6%. The viability, T/C [15] was 58%, the viability, T/C [32] was 60.6% and the viability, T/C [16] was 46.2%. It also gave a viability, T/C [17] of 54.4%, a viability, T/C [18] of 53.7% and a viability, T/C [19] of 55.8%. For the same compound, the viability, T/C [20] was 42.2%, the viability, T/C [33] was 46.1% and the viability, T/C [21] was 0.22%. The viability, T/C [22] was 0.9%, the viability, T/C [23] was 0.17% and the viability, T/C [24] was 0.13%. The viability, T/C [25] was 0.2%, the viability, T/C [34] was 0.36% and the viability, T/C [26] was 0.39%. For the same compound, the viability, T/C [27] was 0.63%, the viability, T/C [28] was 0.39% and the viability, T/C [29] was 0.11%. For the same compound, the viability, T/C [30] was 1.32% and the viability, T/C [35] was 0.63%.

In the case of `CCNC(=O)CC1N=C(c2ccc(Cl)cc2)c2cc(OC)ccc2-n2c(C)nnc21` (configuration not stated) + C=CC(=O)N1CCN(c2nc(=O)n(-c3c(C)ccnc3C(C)C)c3nc(-c4c(O)cccc4F)c(F)cc23)C(C)C1, the IC50 [1] is reported as < 31.6 nM, the IC50 [2] is reported as < 31.6 nM and the IC50 [3] is reported as < 31.6 nM. For the same compound, the IC50 [4] was < 31.6 nM, the IC50 [5] was < 31.6 nM and the viability, T/C [10] was 35%. It also gave a viability, T/C [31] of 33%, a viability, T/C (second compound 0.1 µM, first compound 0.316 µM) of 24.3% and a viability, T/C (second compound 0.1 µM, first compound 1 µM) of 18.5%. It also gave a viability, T/C (second compound 0.1 µM, first compound 3.16 µM) of 15.2%, a viability, T/C (second compound 0.1 µM, first compound 10 µM) of 12.9% and a viability, T/C [15] of 28.9%. The viability, T/C [32] was 34.7%, the viability, T/C (second compound 0.316 µM, first compound 0.316 µM) was 25.1% and the viability, T/C (second compound 0.316 µM, first compound 1 µM) was 18.7%. For the same compound, the viability, T/C (second compound 0.316 µM, first compound 3.16 µM) was 15.3%, the viability, T/C (second compound 0.316 µM, first compound 10 µM) was 13.2% and the viability, T/C [20] was 32.7%. It also gave a viability, T/C [33] of 31.1%, a viability, T/C (second compound 1 µM, first compound 0.316 µM) of 22% and a viability, T/C (second compound 1 µM, first compound 1 µM) of 16%. It also gave a viability, T/C (second compound 1 µM, first compound 3.16 µM) of 15.8%, a viability, T/C (second compound 1 µM, first compound 10 µM) of 12.4% and a viability, T/C [25] of 25.9%. For the same compound, the viability, T/C [34] was 30.1%, the viability, T/C (second compound 3.16 µM, first compound 0.316 µM) was 20.9% and the viability, T/C (second compound 3.16 µM, first compound 1 µM) was 16.3%. For the same compound, the viability, T/C (second compound 3.16 µM, first compound 3.16 µM) was 12.8%, the viability, T/C (second compound 3.16 µM, first compound 10 µM) was 10.2% and the viability, T/C [30] was 24.3%. It also gave a viability, T/C [35] of 26.2%, a viability, T/C (second compound 10 µM, first compound 0.316 µM) of 17% and a viability, T/C (second compound 10 µM, first compound 1 µM) of 10.3%. The viability, T/C (second compound 10 µM, first compound 3.16 µM) was 9.13% and the viability, T/C (second compound 10 µM, first compound 10 µM) was 9.1%.

With `CCN1CCN(Cc2ccc(Nc3ncc(F)c(-c4cc(F)c5nc(C)n(C(C)C)c5c4)n3)nc2)CC1` the viability, T/C (compound 0.00316 µM) was 97.6% [middle of 5 runs], the viability, T/C (compound 0.01 µM) was 93.7% [middle of 5 runs] and the viability, T/C (compound 0.0316 µM) was 76.9% [middle of 5 runs]. The viability, T/C (compound 0.1 µM) was 71% [middle of 5 runs], the viability, T/C (compound 0.316 µM) was 70.9% [middle of 5 runs] and the viability, T/C (compound 1 µM) was 65.2% [middle of 5 runs]. The IC50 (curve of compound) was > 1000 nM.
